The text below walks through data of patent US6410480B1, “Herbicidally active 3-hydroxy-4-aryl-5-oxopyrazoline derivatives” (Syngenta Crop Protection, Inc., priority 1998, dated 2002).

Holding throughout (assay type): in vivo
Holding throughout (design): key: 1=complete damage; 9=no effect; Ratings of 1 to 4 (in particular 1 to 3) mean a good to very good herbicidal action

The test system of assay [1] is Avena. The assay is described as follows: Example B3: pre-emergence herbicidal action of compounds of the invention. The note with it: 500 g of active substance/ha, 3 weeks after application, scale 1-9. On the procedure:
(§1) Monocotyledonous and dicotyledonous weeds are grown in standard soil in plastic pots. Directly after sowing, the test substances are applied (500 l of water/ha) as an aqueous suspension (prepared using a 25% wettable powder (Example F3, b)) or as an emulsion (prepared using a 25% emulsion concentrate (Example F1, c)). The application rate is 500 g of active substance/ha. The test plants are subsequently grown under optimum conditions in a greenhouse 3 weeks after the application, evaluation is carried out using a nine-level scale of ratings (1=complete damage, 9=no effect). Ratings of 1 to 4 (in particular 1 to 3) mean a good to very good herbicidal action. Test plants: Avena (Ave), Lolium (Lol), Setaria (Set).

For assay [2], the system named is Lolium. Described as above. The following applies: 500 g of active substance/ha, 3 weeks after application, scale 1-9. As for the experimental part: as §1
Assay [3] deals with Setaria. The description is as above. The following applies: 500 g of active substance/ha, 3 weeks after application, scale 1-9. On the procedure:
as §1

Assay [4] deals with Avena. The assay is described as follows: Example B4: post-emergence herbicidal action of compounds of the invention. The note with it: 3- to 6-leaf stage, 250 g of active substance/ha, 3 weeks after application, scale 1-9. As for the experimental part: (§2) Monocotyledonous and dicotyledonous weeds are grown in standard soil in plastic pots under greenhouse conditions. The test substances are applied at the 3- to 6-leaf stage of the test plants. The test substances are applied (500 l of water/ha) as an aqueous suspension (prepared using a 25% wettable powder (Example F3, b)) or as an emulsion (prepared using a 25% emulsion concentrate (Example F1, c)) at an application rate of 250 g of active substance/ha. 3 weeks after the application, evaluation is carried out using a nine-level scale of ratings (1=complete damage, 9=no effect). Ratings of 1 to 4 (in particular 1 to 3) mean a good to very good herbicidal action. Test plants: Avena (Ave), Lolium (Lol), Setaria (Set).

Assay [5] has as its system Lolium. The description is as above. The note with it: 3- to 6-leaf stage, 250 g of active substance/ha, 3 weeks after application, scale 1-9. On the procedure: as §2
For assay [6], the system named is Setaria. The description is as above. The note with it: 3- to 6-leaf stage, 250 g of active substance/ha, 3 weeks after application, scale 1-9. As for the experimental part:
as §2

Turning to `CCc1cc(C)cc(C)c1-c1c(O)n2n(c1=O)CCOCC2` [1.004], the “Pre-emergence action, Ave (rating)” value in the assay on Avena [1] worked out at 1. Also, the “Pre-emergence action, Lol (rating)” value with Lolium [2] amounted to 1. In addition, the “Pre-emergence action, Set (rating)” value in the assay with Setaria [3] is listed as 2.

`CCc1cc(C)cc(CC)c1-c1c(O)n2n(c1=O)CCOCC2` [Compound No. 1.007]: the “Post-emergence action, Ave (rating)” value with Avena [4] is listed as 1. Besides, the “Post-emergence action, Lol (rating)” value in the assay with Lolium [5] is recorded as 1. The “Post-emergence action, Set (rating)” value in the assay on Setaria [6] amounted to 1.
